Data on two compounds can be found in US20230158084A1, “PROBIOTICS, METABOLITES, AND USES THEREOF” (California Institute of Technology, priority 2018, published 2023).

Entries after “also recorded” stand apart in the source; their conditions may differ.

Assay [1] concerns pyramidal neurons in the L5 of the mPFC. The assay can be described thus: Electrophysiology in acute slices from treated BTBR mice (mEPSC, mIPSC, excitability). Conditions: BTBR mice given 10 mM in drinking water starting 3-4 weeks of age. Format: in vivo, mouse. Here is the method: FIGS. 8A-E are a series of graphs illustrating effects of microbial metabolites on brain activity of mice in accordance with some embodiments herein. Mice were orally administered 10 mM Taurine or 5AV in drinking water starting 3-4 weeks of age mating, and throughout their lifetime. FIG. 8A illustrates effects on amplitude and frequency of mEPSCs in pyramidal neurons in the L5 of the mPFC in acute slices from BTBR mice treated with 5AV, Taurine, or control. FIG. 8B illustrates effects on amplitude and frequency of mIPSCs in pyramidal neurons in the L5 of the mPFC in acute slices from BTBR mice treated with 5AV, Taurine, or control. Hypotheses for FIGS. 8A-B were tested by ANOVA on trimmed means (10%) and subsequent post-hoc tests. FIG. 8C illustrates effects on excitability of pyramidal neurons in the L5 of the mPFC in acute slices from BTBR mice treated with 5AV, Taurine, or control in response to step-wise injection current, as measured by the number of action potential spikes. 2-way ANOVA. BTBR mice were orally administered 10 mM Taurine or 5AV in drinking water starting 3-4 weeks of age mating, and throughout their lifetime, and effects on the brain were observed. FIG. 8A illustrates effects on amplitude and frequency of mEPSCs in pyramidal neurons in the L5 of the mPFC in acute slices from BTBR mice treated with 5AV, Taurine, or control. FIG. 8B illustrates effects on amplitude and frequency of mIPSCs in pyramidal neurons in the L5 of the mPFC in acute slices from BTBR mice treated with 5AV, Taurine, or control. Hypotheses for FIGS. 8A-B were tested by ANOVA on trimmed means (10%) and subsequent post-hoc tests. FIG. 8C illustrates effects on excitability of pyramidal neurons in the L5 of the mPFC in acute slices from BTBR mice treated with 5AV, Taurine, or control in response to step-wise injection current, as measured by the number of action potential spikes. 2-way ANOVA.

In the next assay the test system is BTBR mice. Kind of assay: Direct social interaction (DSI) test, BTBR mice given metabolites. It counts as in vivo, mouse. Conditions: BTBR offspring; 10 mM in drinking water before mating and throughout lifetime (prenatal administration); vs untreated vehicle controls. Here is the method:
FIGS. 5A-D are a series of drawings illustrating that differential metabolites impact ASD-relevant behaviors in SPF mice in accordance with some embodiments herein. FIG. 5A: The abundance of select metabolites in the offspring microbiome is correlated with behavior of male offspring. Spearman correlation between the microbiome and mouse behavior, by donor (See FIGS. 1A-0). […] Color scale denotes Spearman ρ. […] Groups of mice were orally administered 10 mM Taurine or 5AV in drinking water before mating, and throughout their lifetime. Offspring were tested by marble burying, direct social interaction, and open field tests, and compared to untreated vehicle controls. […] Social Behavior (SI)-direct social interaction (DSI) test-As a more sensitive measure for sociability, the direct social interaction test was also used, where a mouse is allowed to interact with a stimulus mouse while the interaction is being recorded. Each mouse was introduced to a fresh empty cage and allowed to habituate for 10 minutes; grooming behavior was scored for the last five minutes of this period. […] A blinded observer scored videos for any social approach, aggression, or grooming behavior […] using the ETHOM software (Shih and Mok, 2000). […] As such, it will be appreciated that at a given stage of development, some molecules may readily pass through the blood brain barrier, while others may not.

In another assay the test system is GABA receptor. Conditions: literature statement; cited from earlier work.
Assay [2] concerns lncRNAs and ASD-relevant isoforms in the STR and PFC of BTBR mice. The assay can be described thus: qPCR of BTBR brains after 5AV and taurine administration. It counts as in vivo, mouse. Conditions: adult metabolite-treated BTBR mice. From the text: FIGS. 5A-D are a series of drawings illustrating that differential metabolites impact ASD-relevant behaviors in SPF mice in accordance with some embodiments herein. FIG. 5A: The abundance of select metabolites in the offspring microbiome is correlated with behavior of male offspring. Spearman correlation between the microbiome and mouse behavior, by donor (See FIGS. 1A-0). Benjamini-Hochberg adjusted p-values (α≤0.05) for significant correlations are noted. Color scale denotes Spearman ρ. […] Groups of mice were orally administered 10 mM Taurine or 5AV in drinking water before mating, and throughout their lifetime. Offspring were tested by marble burying, direct social interaction, and open field tests, and compared to untreated vehicle controls. Results are aggregated from 2 independent experiments. NControl=42, N5AV=52, NTaurine=36. Bar plots denote mean and S.E.M. Hypothesis on differences in means were tested by ANOVA on trimmed means (10%) and subsequent posthoc tests. FIGS. 5E-L: qPCR of BTBR brains after 5AV and taurine administration. Results are aggregated from 2 independent experiments. Hypothesis on differences in means were tested by ANOVA on trimmed means (10%) and subsequent posthoc tests. FIGS. 5M-V: series of graphs illustrating E18 B6 feeding 5AV and Taurine targeted metabolomics.
In view of the results described herein, it was further hypothesized that 5AV and taurine exert their effects on behavioral outcomes by altering expression patterns in the brain. To address this hypothesis, brains were collected from adult metabolite-treated BTBR mice and relative expression was quantified for select genes and isoforms that are differentially expressed between TD- and ASD-colonized offspring (FIGS. 3A-J). […] To test whether the expression of splice variants containing exons highlighted by rMATs analysis (see FIG. 3B, Tables 2.1-2.3), isoforms of interest were identified, which contain or exclude exons implicated by the analysis. […] Therefore, treatment with 5AV and taurine according to some embodiments affects the expression of lncRNAs and of specific ASD-relevant isoforms in the brains of BTBR mice treated throughout their lives.
Background: Real-time PCR tracks product formation cycle by cycle.

On to `NCCCCC(=O)O` [5AV, 5-Aminovaleric acid], for which, in assay [1], the mEPSC amplitude entry is “induced a decrease in mEPSC amplitude, it was not statistically significant” and the “other effects on neuron activity (mIPSCs, excitability; FIGS. 8B-E)” value is “not otherwise observed”. Further, the “sociability / social duration (direct social interaction)” value in the assay with BTBR mice is “increases sociability”. Further, the GABA receptor agonism entry in the assay with GABA receptor is reported as “weak GABA receptor agonist”. Also, the “expression of isoforms of Tip12 and Pogz” value in assay [2] was “marginal effects”. In assay [2] (striatum), the “expression of the lncRNAs Gm17259 and Gm13016 in the STR” value was “increased”; the “expression of transcripts of Neurexin 1 in the STR” value was “increased in expression”.

With `NCCS(=O)(=O)O` [taurine], the “other effects on neuron activity (mIPSCs, excitability; FIGS. 8B-E)” value in assay [1] is recorded as “not otherwise observed”. Further, the “sociability / social duration (direct social interaction)” value with BTBR mice is listed as “trend toward increasing social duration in all mice; also recorded: increases sociability”. Moreover, the GABA receptor agonism entry with GABA receptor was “weak GABA agonist”. The “expression of isoforms containing a A3SS event in Gigyf2” value in assay [2] is recorded as “increases the expression”. The “expression of the lncRNAs Gm17259 and Gm13016 in the STR” value in assay [2] (striatum) is given as “increased”.
